Test results as given in patent US12030875B2, “EIF4E inhibitors and uses thereof” (PIC Therapeutics, Inc., priority 2018, dated 2024).

Biological target: T1, Human eIF4E (Homo sapiens, UniProt P06730)
T1 construct: Human eIF4E (aa 28-217) with a C-terminal His-tag; made in house
Experiment: Human eIF4E/4G2 binding assay (TR-FRET)
Settings: eIF4E (aa 28-217) with biotin labeled 4G2 peptide
Method: Human eIF4E (aa 28-217) with a C-terminal His-tag was expressed in E. coli in inclusion bodies. The protein was solubilized with 8 M urea and purified under denaturing conditions using nickel-charged HisTrap HP columns (GE Healthcare). The purified protein was then refolded by diluting in 20 mM Hepes pH 7.0, 0.5 M NaCl, 1 mM DTT, 1 mM EDTA, 0.5 M arginine plus 6 M urea, and then dialyzing overnight into the same buffer without the urea. The protein was further dialyzed into 20 mM Hepes, pH 6.5, 50 mM NaCl, 1 mM EDTA, 1 mM DTT, and concentrated using Hitrap SP sepharose FF columns (GE Healthcare). The concentrated protein was dialyzed into 20 mM Hepes, pH 7.0, 0.5M NaCl, 5 mM DTT and 10% glycerol, and stored at −80° C. until use.
Test compounds (3.43 mM stock in DMSO) were diluted 2-fold in series in DMSO (10 concentration points). Compound solutions (1.2 μl/well) were added into black 384-well polypropylene microplates (Matrix, Thermal Scientific). Twenty-two microliters per well of Assay Buffer (50 mM NaPi, pH 6.5, 50 mM KCl, 1 mM DTT and 0.5 mg/ml gamma globulin) and eight microliters per well of 82.5 nM purified eIF4E in Assay Buffer were added. The samples were incubated at room temperature (20-23° C.) for 15 min. Biotin labeled 4G2 peptide (Ac-Lys-Gln-Tyr-Asp-Arg-Glu-Phe-Leu-Leu-Asp-Phe-Gln-Phe-Met-Pro-Lys(Aha-Bio)-NH2, 1.75 μM stock in DMSO) was diluted to 0.14 μM in Assay Buffer (without DTT) and 5 μl/well was added. The samples were incubated at room temperature for 15 min. Five microliters per well of 6.4 nM Eu-streptavidin (Eu-SA, Perkin Elmer) and 80 nM Allophycocyanin (APC)-anti His antibody (Columbia Biosciences) in Assay Buffer (without DTT) were then added and the samples were incubated at room temperature for 20 min.
Assay signals were monitored by reading excitation at 340 nm and emission fluorescence at 615 nm and 665 nm on an Envision reader (Perkin Elmer). Normalized TR-FRET (time-resolved fluorescence resonance energy transfer) assay signal (Rn) was calculated by the formula: Rn═[(A−Ba−C×D)/(D−Bd)]×(Dc−Bd) • Where A is the fluorescence intensity of the sample at 665 nm, • D is the fluorescence intensity of the sample at 615 nm, • Ba and Bd are plate backgrounds at 665 nm and 615 nm, respectively, • Dc is the fluorescence intensity of 0.78 nM Eu-SA in the assay buffer at 615 nm • The cross-talk factor (C) is determined by the following formula: C=(Ac−Ba)/(Dc−Bd) • Where Ac is the fluorescence intensity of 0.78 nM Eu-SA in the assay buffer at 665 nm.
IC50 values were calculated using xLFit program (IDBS).

T1 sequence (P06730 28-217): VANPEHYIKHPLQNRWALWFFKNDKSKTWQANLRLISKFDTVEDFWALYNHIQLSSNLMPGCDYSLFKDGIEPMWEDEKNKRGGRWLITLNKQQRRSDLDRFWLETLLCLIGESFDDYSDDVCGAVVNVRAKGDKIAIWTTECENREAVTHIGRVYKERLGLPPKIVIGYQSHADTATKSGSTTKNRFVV

Row | SMILES | IC50 [µM]
1 | O=C(O)CC1CCCN1c1nc(-c2ccc(Oc3ccccc3)cc2)c(-c2cncnc2)s1 (stereo not drawn) [Compound I-187] | > 25
2 | O=C(O)C1(CNc2nc(-c3ccc(-c4cnco4)cc3)c(-c3cccnc3)s2)CC1 [Compound I-46] | > 25
3 | CC(CNc1nc(-c2ccc(-c3ccc(F)cc3)cc2)c(C(F)(F)F)s1)C(=O)O (stereo not drawn) [Compound I-229] | < 5
4 | CC(CNc1nc(-c2ccc(Oc3ccccc3)cc2)c(-c2cncnc2)s1)C(=O)O (stereo not drawn) [Compound I-178] | > 25
5 | O=C(O)CC1CCCN1c1nc(-c2ccc(-c3cnco3)cc2)c(-c2cncnc2)s1 (stereo not drawn) [Compound I-37] | > 25
6 | O=C(O)C1CC(CNc2nc(-c3ccc(Oc4ccccc4)cc3)c(-c3cncnc3)s2)C1 (stereo not drawn) [Compound I-202] | > 25
7 | CC(C)C(CC(=O)O)Nc1nc(-c2ccc(Oc3ccccc3)cc2)c(-c2cccnc2)s1 (stereo not drawn) [Compound I-151] | > 25
8 | CC(C)C(CC(=O)O)Nc1nc(-c2ccc(-c3ccc(F)cc3)cc2)cs1 (stereo not drawn) [Compound I-64] | 5 to 25
9 | CC(C)(CNc1nc(-c2ccc(Oc3ccccc3)cc2)cs1)C(=O)O [Compound I-153] | > 25
10 | O=C(O)C1(CNc2nc(-c3ccc(-c4ccc(F)cc4)cc3)c(Br)s2)CC1 [Compound I-121] | 5 to 25
11 | CCCC(CNc1nc(-c2ccc(Oc3ccccc3)cc2)cs1)C(=O)O (stereo not drawn) [Compound I-167] | > 25
12 | O=C(O)C1CC(CNc2nc(-c3ccc(Oc4ccccc4)cc3)c(-c3cccnc3)s2)C1 (stereo not drawn) [Compound I-203] | > 25
13 | O=C(O)C1CN(c2nc(-c3ccc(-c4cnco4)cc3)c(-c3cncnc3)s2)CCO1 (stereo not drawn) [Compound I-57] | > 25
14 | O=C(O)C1CCN(c2nc(-c3ccc(-c4cnco4)cc3)c(-c3cncnc3)s2)CC1 [Compound I-53] | > 25
15 | CC(CNc1nc(-c2ccc(Oc3ccccc3)cc2)cs1)C(=O)O (stereo not drawn) [Compound I-176] | > 25
16 | CC(C)C(CC(=O)O)Nc1nc(-c2ccccc2)c(-c2ccc(-c3cnco3)cc2)s1 (stereo not drawn) [Compound I-1] | > 25
17 | CC(C)(CNc1nc(-c2ccc(-c3cnco3)cc2)c(-c2cccc3[nH]ccc23)s1)C(=O)O [Compound I-8] | > 25
18 | CCCC(CNc1nc(-c2ccc(-c3ccc(F)cc3)cc2)c(Br)s1)C(=O)O (stereo not drawn) [Compound I-88] | 5 to 25
19 | O=C(O)CCc1nc(-c2ccc(-c3ccc(F)cc3)cc2)c(C(F)(F)F)s1 [Compound I-235, 3-(4-(4′-fluorobiphenyl-4-yl)-5-(trifluoromethyl)-thiazol-2-yl)-propanoic acid] | 5 to 25
20 | CC(CNc1nc(-c2ccc(-c3cnco3)cc2)cs1)C(=O)O (stereo not drawn) [Compound I-26] | > 25
21 | CC(C)(CNc1nc(-c2ccc(-c3ccc(F)cc3)cc2)cs1)C(=O)O [Compound I-70] | > 25
22 | CC(CNc1nc(-c2ccc(-c3cnco3)cc2)c(-c2ccccc2)s1)C(=O)O (stereo not drawn) [Compound I-27] | > 25
23 | O=C(O)CC1CCCN1c1nc(-c2ccc(-c3cnco3)cc2)cs1 (stereo not drawn) [Compound I-35] | > 25
24 | CC(CNc1nc(-c2ccc(-c3cnco3)cc2)c(-c2cccc3[nH]ccc23)s1)C(=O)O (stereo not drawn) [Compound I-30] | > 25
25 | CC(C)[C@@H](CC(=O)O)Nc1nc(-c2ccc(-c3ccc(F)cc3)cc2)c(Br)s1 [Compound I-221] | < 5
26 | O=C(O)C1(CNc2nc(-c3ccc(Oc4ccccc4)cc3)c(-c3cccc4[nH]ccc34)s2)CC1 [Compound I-199] | 5 to 25
27 | CC(C)C(CC(=O)O)Nc1nc(-c2ccc(-c3ccc(F)cc3)cc2)c(Br)s1 (stereo not drawn) [Compound I-65] | 5 to 25

The next lines start with the values.

Row | IC50 [µM] | SMILES
28 | > 25 | O=C(O)C1CCN(c2nc(-c3ccc(-c4cnco4)cc3)c(-c3cccnc3)s2)C1 (stereo not drawn) [Compound I-42]
29 | < 5 | O=C(O)C1CCCN(c2nc(-c3ccc(Oc4ccccc4)cc3)c(-c3cccc4[nH]ccc34)s2)C1 (stereo not drawn) [Compound I-185]
30 | < 5 | O=C(O)CCc1nc(-c2ccc(-c3ccc(F)cc3)cc2)c(-c2ccccc2)s1 [Compound I-234, 3-(4-(4′-fluorobiphenyl-4-yl)-5-phenylthiazol-2-yl)propanoic acid]
31 | > 25 | O=C(O)C1CC(CNc2nc(-c3ccc(-c4ccc(F)cc4)cc3)c(-c3cccnc3)s2)C1 (stereo not drawn) [Compound I-130]
32 | 5 to 25 | O=C(O)C1CCN(c2nc(-c3ccc(Oc4ccccc4)cc3)c(-c3cccc4[nH]ccc34)s2)CC1 [Compound I-212]
33 | > 25 | O=C(O)C1CN(c2nc(-c3ccc(-c4ccc(F)cc4)cc3)c(-c3cncnc3)s2)C1 [Compound I-78]
34 | 5 to 25 | CC(C)(CNc1nc(-c2ccc(-c3ccc(F)cc3)cc2)c(-c2cccnc2)s1)C(=O)O [Compound I-74]
35 | < 5 | CCCC(CNc1nc(-c2ccc(-c3ccc(F)cc3)cc2)c(-c2ccccc2)s1)C(=O)O (stereo not drawn) [Compound I-89]
36 | < 5 | CC(C)C(CC(=O)O)Nc1nc(-c2ccc(-c3ccc(F)cc3)cc2)c(-c2ccccc2)s1 (stereo not drawn) [Compound I-66]
37 | > 25 | O=C(O)C1CN(c2nc(-c3ccc(-c4cnco4)cc3)c(-c3cccnc3)s2)CCO1 (stereo not drawn) [Compound I-58]
38 | > 25 | O=C(O)C1CN(c2nc(-c3ccc(-c4ccc(F)cc4)cc3)c(-c3cccnc3)s2)C1 [Compound I-79]
39 | < 5 | O=C(O)C1CN(c2nc(-c3ccc(Oc4ccccc4)cc3)c(-c3ccccc3)s2)C1 [Compound I-158]
40 | > 25 | O=C(O)C1CN(c2nc(-c3ccc(Oc4ccccc4)cc3)c(-c3cccnc3)s2)C1 [Compound I-160]
41 | > 25 | O=C(O)C1CN(c2nc(-c3ccc(-c4ccc(F)cc4)cc3)c(-c3cccnc3)s2)CCO1 (stereo not drawn) [Compound I-142]
42 | > 25 | O=C(O)C1CCN(c2nc(-c3ccc(-c4ccc(F)cc4)cc3)c(-c3cncnc3)s2)C1 (stereo not drawn) [Compound I-117]
43 | 5 to 25 | CC1(C(=O)O)CCCN(c2nc(-c3ccc(Oc4ccccc4)cc3)c(-c3cccnc3)s2)C1 (stereo not drawn) [Compound I-219]
44 | > 25 | O=C(O)C1CC(CNc2nc(-c3ccc(-c4ccc(F)cc4)cc3)cs2)C1 (stereo not drawn) [Compound I-126]

Row | IC50 [µM] | SMILES
45 | > 25 | O=C(O)C1CN(c2nc(-c3ccc(-c4cnco4)cc3)c(-c3cccnc3)s2)C1 [Compound I-11]
46 | > 25 | CC1(C(=O)O)CN(c2nc(-c3ccc(-c4ccc(F)cc4)cc3)cs2)C1 [Compound I-81]
47 | 5 to 25 | CC1(C(=O)O)CN(c2nc(-c3ccc(-c4ccc(F)cc4)cc3)c(-c3cccc4[nH]ccc34)s2)C1 [Compound I-86]
48 | 5 to 25 | CC(C)(CNc1nc(-c2ccc(-c3ccc(F)cc3)cc2)c(-c2cccc3[nH]ccc23)s1)C(=O)O [Compound I-75]
49 | > 25 | O=C(O)C1CN(c2nc(-c3ccc(-c4cnco4)cc3)c(-c3ccccc3)s2)C1 [Compound I-9]
50 | 5 to 25 | Cc1nc(N2CCCC(C(=O)O)C2)sc1-c1ccc(-c2ccc(F)cc2)cc1 (stereo not drawn) [Compound I-238]
51 | < 5 | O=C(O)C1CCN(c2nc(-c3ccc(-c4ccc(F)cc4)cc3)c(-c3ccccc3)s2)C1 (stereo not drawn) [Compound I-116]
52 | < 5 | O=C(O)C1CCN(c2nc(-c3ccc(Oc4ccccc4)cc3)c(-c3ccccc3)s2)CC1 [Compound I-209]
53 | < 5 | O=C(O)C1CCCN(c2nc(-c3ccc(-c4ccc(F)cc4)cc3)c(C(F)(F)F)s2)C1 (stereo not drawn) [Compound I-233]
54 | > 25 | O=C(O)CC1CCCN1c1nc(-c2ccc(-c3ccc(F)cc3)cc2)cs1 (stereo not drawn) [Compound I-110]
55 | > 25 | O=C(O)C1CCN(c2nc(-c3ccc(-c4ccc(F)cc4)cc3)cs2)C1 (stereo not drawn) [Compound I-115]
56 | > 25 | O=C(O)C1CN(c2nc(-c3ccc(-c4cnco4)cc3)c(-c3cccc4[nH]ccc34)s2)C1 [Compound I-12]
57 | > 25 | CC(C)(CNc1nc(-c2ccc(-c3ccc(F)cc3)cc2)c(-c2cncnc2)s1)C(=O)O [Compound I-73]
58 | > 25 | CCCC(CNc1nc(-c2ccc(-c3ccc(F)cc3)cc2)c(-c2cncnc2)s1)C(=O)O (stereo not drawn) [Compound I-90]
59 | < 5 | O=C(O)C[C@@H]1CCCN1c1nc(-c2ccc(-c3ccc(F)cc3)cc2)c(-c2ccccc2)s1 [Compound I-226]
60 | < 5 | O=C(O)C1CCCN(c2nc(-c3ccc(-c4ccc(F)cc4)cc3)c(-c3ccccc3)s2)C1 (stereo not drawn) [Compound I-106]
